Test results as given in patent US8178568B2, “Sulfone compounds which modulate the CB2 receptor” (Boehringer Ingelheim International GmbH, priority 2008, dated 2012).
Like-named read-outs stand apart in the source and are kept apart here.

Biological target: T1, human CB2R (Homo sapiens, UniProt P34972)
T1 construct: host or cells: CHO cells
Assay: CB2R mediated modulation of cAMP synthesis
Assay type: cell-based
Procedure: B. CB2R Mediated Modulation of cAMP Synthesis:
Compounds of the invention were evaluated for their CB2 agonist or inverse agonistic activity in accordance with the following experimental method.
CHO cells expressing human CB2R (Euroscreen) were plated at a density of 5000 cells per well in 384 well plates and incubated overnight at 37° C. After removing the media, the cells were treated with test compounds diluted in stimulation buffer containing 1 mM IBMX, 0.25% BSA and 10 uM Forskolin. The assay was incubated for 30 minutes at 37° C. Cells were lysed and the cAMP concentration was measured using DiscoverX-XS cAMP kit, following the manufacturer's protocol. In this setting, agonists will decrease forskolin induced production of cAMP while inverse agonists will further increase forskolin induced production of cAMP. EC50 of agonists were calculated as follows. The maximal amount of cAMP produced by forskolin compared to the level of cAMP inhibited by 1 uM CP55940 is defined as 100%. The EC50 value of each test compound was determined as the concentration at which 50% of the forskolin-stimulated cAMP synthesis was inhibited. Data was analyzed using a four-parameter logistic model. (Model 205 of XLfit 4.0).

[1] = Table III, formula I compounds, CHO cells expressing human CB2R, inhibition of forskolin-stimulated cAMP synthesis, read-out: CB2 EC50

T1 sequence (P34972 whole entry): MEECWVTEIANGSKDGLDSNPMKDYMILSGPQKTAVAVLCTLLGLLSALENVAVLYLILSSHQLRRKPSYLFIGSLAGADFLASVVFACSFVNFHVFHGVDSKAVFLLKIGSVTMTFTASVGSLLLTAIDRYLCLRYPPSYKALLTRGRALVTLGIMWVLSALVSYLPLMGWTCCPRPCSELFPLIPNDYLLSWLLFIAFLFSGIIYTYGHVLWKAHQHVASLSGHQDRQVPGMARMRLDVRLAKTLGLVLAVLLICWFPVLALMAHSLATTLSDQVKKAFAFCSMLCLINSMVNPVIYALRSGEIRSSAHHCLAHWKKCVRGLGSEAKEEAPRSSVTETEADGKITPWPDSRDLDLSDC

SMILES | EC50 [µM] | also measured
CC(C)(C)c1cc(NC(=O)C(C)(CCO)S(=O)(=O)C2CCOCC2)on1 (stereo not drawn) | 0.021 | –
CC(C)(C)c1cc(N2CC[C@@](C)(S(=O)(=O)c3ccc(Cl)cc3)C2=O)on1 | 0.037 | –
O=C(Nc1nc(-c2ccccc2)ns1)C(CCO)S(=O)(=O)c1ccc(Cl)cc1 (stereo not drawn) | – | EC50 (Table VI, formula IB compounds, CHO cells expressing human CB2R, inhibition of forskolin-stimulated cAMP synthesis, read-out: CB2 EC50): 0.544 µM
CC(C)(C)c1cc(NC(=O)C(C)(CCO)S(=O)(=O)c2ccc(Cl)cc2)on1 (stereo not drawn) | 0.017 | –
CC(C)(C)c1cc(N2CC[C@](C)(S(=O)(=O)c3ccc(Cl)cc3)C2=O)on1 | 0.025 | –
CC(C)(C)c1cc(N2CCC(C)(S(=O)(=O)c3ccc(Cl)cc3)C2=O)no1 (stereo not drawn) | 0.014 | –
CC1(S(=O)(=O)c2ccc(Cl)cc2)CCN(c2nnc(-c3ccccc3)[nH]2)C1=O (stereo not drawn) | – | EC50 [1]: 0.02 µM
CC(C)(C)c1cc(N2CCC(C)(S(=O)(=O)C3CCOCC3)C2=O)on1 (stereo not drawn) | – | EC50 [1]: 0.22 µM
CC(C)(C)c1cc(N2CCC(C)(S(=O)(=O)c3ccc(Cl)cc3)C2=O)on1 (stereo not drawn) | 0.025 | –
